In patent US9945845B2, “Methods of screening using amphibians” (priority 2009, dated 2018):
“Also recorded” adds a separate entry of the source. Read-outs that look alike come from different tables or passages of the source.

What was measured:
[1] = test system: VEGFA-induced dermal neovascularization; test: Matrigel plug implantation assay (VEGFA-induced angiogenesis and lymphatic vessel enlargement); assay type: in vivo, mouse; conditions: mice, 3 mg/kg/day orally, 6 days
Description: The mouse studies were conducted under protocols approved by the Veterinary Office of the Canton of Zurich, Switzerland (permit #123/2005). Nine week-old female wild-type FVB mice (Charles River) were used for the experiments (n=6 per group). Prior to Matrigel implantation, the mice were anesthetized by intraperitoneal injection of 200 μl of Dormitor (20 μg/ml medetomidine; Pfizer) and Narketan 10 (8 mg/ml ketamine; Vétoquinol). The left hip of the animals were shaved and subsequently Matrigel was implanted by intradermal injection of 100 μl of unpolymerized growth factor-reduced Matrigel (BD Biosciences) containing 0.5 mg/ml recombinant human VEGFA (#0081109; National Cancer Institute, USA). The mice were treated orally with either 200 μl PEG-400 (Fluka; pH adjusted to 5.2; control group) or with 200 μl PEG-400 containing […] naphthyridine (3 mg/kg/day). Another control group of mice received Matrigel without VEGFA and was treated with 200 μl PEG-400. The treatment was given once daily for six days. Weight and appearance of animals was monitored daily. On the 7th day, the Matrigel implants were removed from the euthanized mice for immunocytochemical examination. The Matrigel implants were frozen in Tissue-Tek O.C.T. compound (Sakura Finetek), sectioned, and processed as described previously (Kajiya et al., 2005). In brief, 6-μm frozen sections were fixed in −20° C. acetone for two minutes and in cold 80% methanol for five minutes, followed by incubation with antibodies against the lymphatic-specific marker LYVE1 (1:1,000; Millipore) and against the pan-endothelial marker […] (anti-mouse; 1:50; BD Biosciences). Corresponding secondary antibodies were labeled with Alexa 488 or Alexa 594 (Invitrogen). Nuclei were counterstained with 20 μg/ml Hoechst 33342 (Invitrogen). Sections were examined under an Axioskop 2 mot plus microscope and digital images were taken using an AxioCam MRc camera (Carl Zeiss). Three pictures each were taken of vascularized areas around the Matrigel implants (maximal distance from the implant: 500 μm). The vessel density, average vessel size and the average tissue area occupied by vessels were determined in CD31/LYVE1 stained sections using the IPLab software (BD Biosciences) as described (Kajiya et al., 2005).
The adenosine A1 receptor antagonist naphthyridine was identified as a novel inhibitor of lymphatic and blood vessel formation in Xenopus tadpoles and in vitro cellular assays, where it acted anti-mitogenic and impaired endothelial tube formation. […] It can be concluded that the ability of naphthyridine to inhibit lymph and blood vessel angiogenesis is conserved between Xenopus and mammals.

Xenopus embryos = test system: Xenopus embryos
Method in brief: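 Stage 31 (37 hpf) Xenopus embryos, five per well, exposed to 20 µM compound in 1% DMSO at 23 °C for 4 days. Edema, lethality and other external phenotypes were scored daily by two investigators at stages 39, 41, 45 and 47.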

LEC [2] = test: cells; assay type: cell-based, human; conditions: Homo sapiens; for activity at 1 µM: 1 μM in 0.1% DMSO
Method in brief: (§1)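 HUVEC and LEC in EBM with 20% FBS, hydrocortisone and dibutyryl-cAMP, up to eleven passages, treated overnight at 37 °C with compound at 1 μM in 0.1% DMSO, then fixed in 4% paraformaldehyde. Read-out: total tube length (μm) per area over three hotspot images per well, triplicate wells.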

LEC [3] = test: LEC cell proliferation assay; assay type: cell-based, human; conditions: Homo sapiens, 48 h, 10 μM in 0.1% DMSO, 48 hours; read-out: LEC proliferation
Method in brief: (§2)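 HUVEC and LEC in EBM with 20% FBS, hydrocortisone and dibutyryl-cAMP were treated with compound at 10 μM in 0.1% DMSO for 48 hours. Viable cells read by fluorescence, in five replicates.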

HUVEC [4] = test: HUVEC tube formation assay; assay type: cell-based, human; conditions: Homo sapiens, HUVEC, 1 μM in 0.1% DMSO
Method in brief: as §1

HUVEC [5] = test: HUVEC cell proliferation assay; assay type: cell-based, human; conditions: Homo sapiens, HUVEC, 48 h, 10 μM in 0.1% DMSO, 48 hours; read-out: HUVEC proliferation
Method in brief: as §2

Compound: Oc1cc(-c2ccccc2)nc2nc(Cl)ccc12 [7-Chloro-4-hydroxy-2-phenyl-1,8-naphthyridine]
- density of lymphatic vessels [1]: unchanged
- number of VEGFA-induced blood vessels [1]: 36.49±1.49
- tissue area covered by lymphatic vessels surrounding VEGFA containing Matrigels [1]: 0.89±0.18%
- lymphatic vessel enlargement ([1]; 3 mg/kg/day): potently inhibited; also recorded: reduction
- tissue area covered by blood vessels ([1]; 3 mg/kg/day): reduction; also recorded: reduced
- Lethality (NF) (Xenopus embryos; compounds causing edema, 20 μM, 1% DMSO, treatment from stage 31, scored to stage 47): 39 NF
- Type of edema Pericordial (Xenopus embryos; embryonic stage): 39 embryonic stages according to Nieuwkoop and Faber (NF)
- Lethality (Xenopus embryos; embryonic stage, — = no stage of lethality given): 39 embryonic stages according to Nieuwkoop and Faber (NF)
- activity at 1 µM (LEC [2]; overnight, read-out: LEC tube formation): 50 to 85%
- activity at 1 µM (LEC [2]; read-out: LEC tube formation (tube length)): 50 to 85%
- IC50 (LEC [2]; doses 0.2-2 μM, data not shown, read-out: IC50 of LEC tube formation): 1300 nM
- activity at 10 µM (LEC [3]): 42 to 48%
- activity at 1 µM (HUVEC [4]; overnight, read-out: HUVEC tube formation): 50 to 85%
- activity at 1 µM (HUVEC [4]; read-out: HUVEC tube formation (tube length)): 50 to 85%
- activity at 10 µM (HUVEC [5]): 42 to 48%
